One compound from US20250268897A1, “USE OF HETEROCYCLIC COMPOUND IN TREATING DISEASES RELATED TO KINASE DRUG-RESISTANT MUTATION AND METHOD THEREFOR” (Sichuan Kelun-Biotech Biopharmaceutical Co., Ltd., priority 2021, published 2025) can be followed below.

The target in one experiment is RET-G810R enzyme (Homo sapiens (Human), UniProt P07949, G810R). As to the kind of experiment: RET inhibition experiment, HTRF KinEASE-TK kit, RET-G810R. Format: biochemical.
Experiment [1] relates to Ba/F3 KIF5B-RET^G810C cells. The experiment in a line: Inhibition of cell proliferation, Cell Titer Glo, Ba/F3 KIF5B-RET^G810C. Format: cell-based. The method, then:
(§1) Experimental purpose: To evaluate the inhibitory effect of the compound on proliferation of three BaF3 cell lines (Ba/F3 KIF5B-RET^G810R, Ba/F3 KIF5B-RET^G810S, Ba/F3 KIF5B-RET^G810C) in vitro.
(§2) Experimental method: Three Ba/F3 cell lines (Ba/F3 KIF5B-RET^G810R, Ba/F3 KIF5B-RET^G810S Ba/F3 KIF5B-RET^G810C) in logarithmic phase were respectively collected and inoculated into 96-well plates, with 2000 cells/95 μl/well. […] In addition, negative control wells (without the test compound) and blank control wells (without cells) were set.
(§3) the inhibition rate % was fitted using the four-parameter equation “log(agonist) vs response-variable slope (four parameters)” in GraphPad Prism 6.0, and the IC50 was obtained by calculation.
For orientation: ATP-based viability assays read luminescence as a measure of living cells.

The subject of experiment [2] is Ba/F3 KIF5B-RET^G810R subcutaneous tumour. As to the kind of experiment: In vivo efficacy in BALB/c Nude mouse model with Ba/F3 KIF5B-RET^G810R subcutaneous tumour. The settings on record: 30 mg/kg, PO, BID × 12.
Experiment [3] has as its system Ba/F3 KIF5B-RET^G810S cells. The experiment in a line: Inhibition of cell proliferation, Cell Titer Glo, Ba/F3 KIF5B-RET^G810S. Format: cell-based. The method, then:
as §1, §2, §3

In experiment [4] the test system is Ba/F3 KIF5B-RET^G810R cells. As to the kind of experiment: Inhibition of cell proliferation, Cell Titer Glo, Ba/F3 KIF5B-RET^G810R. Type of experiment: cell-based. The protocol: as §1, §2, §3
The target of a further experiment is RET-G810C enzyme (Homo sapiens (Human), UniProt P07949, G810C). As to the kind of experiment: RET inhibition experiment, HTRF KinEASE-TK kit, RET-G810C. Format: biochemical.
The target in a further experiment is RET-G810S enzyme (Homo sapiens (Human), UniProt P07949, G810S). As to the kind of experiment: RET inhibition experiment, HTRF KinEASE-TK kit, RET-G810S. Format: biochemical.
Setting [5] is: Mus musculus, BaF3, 72 h, 3 days culture, Cell Titer Glo.

Chain of RET-G810S enzyme (P07949 29-1114 G810S): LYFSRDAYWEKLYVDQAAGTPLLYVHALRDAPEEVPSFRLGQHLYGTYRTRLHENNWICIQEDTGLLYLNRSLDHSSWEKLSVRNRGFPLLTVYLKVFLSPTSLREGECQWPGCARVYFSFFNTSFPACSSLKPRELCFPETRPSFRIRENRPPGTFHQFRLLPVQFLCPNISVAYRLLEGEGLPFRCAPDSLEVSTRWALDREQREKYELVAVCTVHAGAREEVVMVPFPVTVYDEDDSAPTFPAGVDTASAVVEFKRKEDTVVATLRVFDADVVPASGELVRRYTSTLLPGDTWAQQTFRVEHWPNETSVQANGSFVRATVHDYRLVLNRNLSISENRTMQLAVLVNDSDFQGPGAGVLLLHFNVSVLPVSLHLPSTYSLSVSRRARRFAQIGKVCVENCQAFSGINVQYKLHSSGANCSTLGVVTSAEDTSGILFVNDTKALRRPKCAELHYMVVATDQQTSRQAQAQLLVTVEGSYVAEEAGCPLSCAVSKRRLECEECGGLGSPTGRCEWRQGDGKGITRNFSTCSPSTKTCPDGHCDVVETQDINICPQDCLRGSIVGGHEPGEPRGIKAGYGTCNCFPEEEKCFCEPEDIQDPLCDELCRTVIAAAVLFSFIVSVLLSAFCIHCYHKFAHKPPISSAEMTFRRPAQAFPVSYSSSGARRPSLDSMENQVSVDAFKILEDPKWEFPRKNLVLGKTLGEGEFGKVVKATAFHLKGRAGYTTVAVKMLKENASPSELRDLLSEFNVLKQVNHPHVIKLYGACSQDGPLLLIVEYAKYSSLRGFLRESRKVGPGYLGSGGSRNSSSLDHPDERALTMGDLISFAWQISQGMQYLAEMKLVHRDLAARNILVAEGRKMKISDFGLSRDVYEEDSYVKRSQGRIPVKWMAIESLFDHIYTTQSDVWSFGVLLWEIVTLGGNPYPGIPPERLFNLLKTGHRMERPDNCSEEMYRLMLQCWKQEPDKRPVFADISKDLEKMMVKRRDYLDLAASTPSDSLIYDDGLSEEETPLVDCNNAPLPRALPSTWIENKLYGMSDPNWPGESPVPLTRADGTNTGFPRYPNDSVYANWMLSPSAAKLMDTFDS
Chain of RET-G810C enzyme (P07949 29-1114 G810C): as the sequence (P07949 29-1114 G810S) above, with S782C counted along it
Chain of RET-G810R enzyme (P07949 29-1114 G810R): as the sequence (P07949 29-1114 G810S) above, with S782R counted along it

A word on the IC50: it is the midpoint of a concentration-inhibition curve. On to `Cc1cc(Nc2cc(C)[nH]n2)nc(-c2ccc(N3CC4CC(C3)N4Cc3ccc(-n4cc(F)cn4)nc3)nc2)n1.O=C(O)/C=C/C(=O)O` [Compound 1-A, Fumarate of 2-(6-(6-((6-(4-fluoro-1H-pyrazol-1-yl)pyridin-3-yl)methyl)-3,6-diazabicyclo [3.1.1]heptan-3-yl)pyridin-3-yl)-6-methyl-N-(5-methyl-1H-pyrazol-3-yl) pyrimidin-4-amine], for which the concentration for half-maximal inhibition (IC50) amounted to 19.6 ± 0.67 nM at RET-G810R enzyme (Table 7, value ± spread); 65.3 ± 1 nM in experiment [1] (setting [5]); 20.2 ± 0.35 nM in experiment [3] (setting [5]); 26.3 ± 5.76 nM in experiment [4] (setting [5]); 53.2 ± 10.7 nM against RET-G810C enzyme (Table 7, value ± spread); 2.69 ± 0.56 nM against RET-G810S enzyme (Table 7, value ± spread). The “Inhibition on RET-G810R enzyme (in words)” value on RET-G810R enzyme (summary of tables) is on record as “remarkably inhibited”. Moreover, the “Inhibiting the proliferation of Ba/F3 KIF5B-RET^G810C cells (in words)” value in experiment [1] (comparison with controls) is “superior to BLU-667 and Loxo-292”. Further, in experiment [2], the “TGI (%) tumour growth inhibition rate” value amounted to 72.37%. In addition, in experiment [2], the “VP12 (mm^3, mean ± SEM): tumour volume on Day 12 of administration” value is 278.53 ± 51.13 mm^3. The “VP-1 (mm^3, mean ± SEM): tumour volume one day before administration” value in experiment [2] (baseline of the group) is 101.08 ± 4.75 mm^3. Moreover, in experiment [3] (comparison with controls), the “Inhibiting the proliferation of Ba/F3 KIF5B-RET^G810S cells (in words)” value was “superior to BLU-667 and Loxo-292”. In addition, in experiment [4] (comparison with controls), the “Inhibiting the proliferation of Ba/F3 KIF5B-RET^G810R cells (in words)” value is “superior to BLU-667 and Loxo-292”. On RET-G810C enzyme (summary of tables), the “Inhibition on RET-G810C enzyme (in words)” value is “remarkably inhibited”. Further, the “Inhibition on RET-G810S enzyme (in words)” value on RET-G810S enzyme (summary of tables) is “remarkably inhibited”.
